Entries after “also recorded” stand apart in the source; their conditions may differ.
How the values were obtained:
WEHI-3B cell lysosomes = test: Transmission electron microscopy of lysosomes of CBE treated WEHI-3B cells; assay type: cell-based, murine; conditions: transmission electron microscopy (FIG. 6)
[1] = test system: glycolipid biosynthesis in HL-60 cells; test: Inhibition of glycolipid biosynthesis in HL-60 cells, [14C]-palmitic acid labelling, 1D-TLC;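 for all read-outs here: cells cultured 24 h with or without test compound, total cellular lipids resolved by one-dimensional TLC and detected by autoradiography, inhibition shown as missing Glc-Cer and gangliosides versus untreated cells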; assay type: cell-based, human; conditions: for effect of N-alkyl chain length on inhibition of glycolipid biosynthesis (loss of detectable Glc-Cer): HL-60, 0.5 mM, 1D-TLC (FIG. 4); for inhibition of glycolipid biosynthesis: HL-60, 500 μM, 1D-TLC (FIG. 1)
[2] = test system: UDP-glucose:N-acylsphingosine glucosyltransferase; test: Inhibition of UDP-glucose:N-acylsphingosine glucosyltransferase; assay type: biochemical, rat brain, mouse macrophage (WEHI-3B); conditions: for IC50: highest concentrations tested, read-out: IC50 (not inhibitory)
[3] = test system: Glc-Cer accumulation in WEHI-3B murine macrophage cells; test: In vitro Gaucher's disease model: CBE induced glycolipid storage in WEHI-3B cells, 1D-TLC; assay type: cell-based; conditions: CBE
Method: In this model, the murine macrophage cell line WEHI-3B was cultured in the presence of an irreversible glucocerebrosidase inhibitor, conduritol β epoxide (CBE), to mimic the inherited disorder found in Gaucher's disease. WEHI-3B cells are well-known, widely distributed and readily available murine macrophage cells. They are described in Cancer Res. 37, 546-550 (1977), and are readily available from the American Type Culture Collection, Rockville, Md, under accession number ATCC TIB 68. The compounds of the invention prevent lysosomal glycolipid storage which is useful for the management of Gaucher's disease and other glycolipid storage disorders as illustrated hereinafter in Table 3. Gaucher's disease is an autosomal recessive disorder characterized by an impaired ability to degrade glucocerebroside (glucosyl ceramide, Glc-Cer) due to mutations in the gene encoding β-glucocerebrosidase (β-D-glucosyl-N-acylsphingosine glucohydrolase, EC 3.2.1.45). This defect results in the lysosomal accumulation of Glc-Cer in cells of the macrophage-monocyte system [Barranger and Ginns, in The Metabolic Basis of Inherited Diseases, ed. Scriver et al., pp. 1677-1698, McGraw-Hill, New York, (1989); Beutler, Science 256, 794-799 (1992)]. By slowing the rate of glycolipid synthesis, the impaired catabolism of Glc-Cer can be offset, thereby leading to the maintenance of a balanced level of Glc-Cer.
FIGS. 5 and 6 show the analysis of NB-DNJ and NB-DGJ in an in vitro Gaucher's disease model.
The in vitro Gaucher's disease model was prepared as follows: WEHI-3B cells (American Type Culture Collection, Rockville, Md., U.S.A.) were maintained in logarithmic phase growth for 14 days in RPMI-1640 medium, 10% FCS, in the presence or absence of 50 μM conduritol β epoxide (CBE, Toronto Research Chemicals, Downsview, Canada) with or without NB-DNJ or NB-DGJ. Cells were passaged every 3 days and compound concentrations maintained throughout. Equal cell numbers (5×10^6) were harvested, extracted in 1 ml chloroform: methanol (2:1 v/v) overnight at 4° C., the extracts centrifuged, the chloroform:methanol extract retained and the pellet re-extracted as above for 2 hr. at room temperature. Pooled extracts were dried under nitrogen, re-dissolved in 10 μl chloroform:methanol (2:1 v/v) and separated by 1D-TLC in chloroform:methanol:water […]. Plates were air dried and visualized using α-naphthol (1% w/v in methanol) followed by 50% (v/v) sulphuric acid.

| Structure (SMILES) | effect of N-alkyl chain length on inhibition of glycolipid biosynthesis (loss of detectable Glc-Cer) [1] | also measured |
| --- | --- | --- |
| O[C@H]1[C@H](O)[C@@H](O)[C@@H]2O[C@@H]2[C@@H]1O [CBE, conduritol β epoxide] | – | glycolipid accumulation in lysosomes (WEHI-3B cell lysosomes): glycolipid accumulation observed in the lysosomes |
| OC[C@H]1NC[C@H](O)[C@@H](O)[C@H]1O [DGJ, Deoxygalactonojirimycin] | no effect; also recorded: inactive | inhibition of glucose transfer ([2]; highest concentration tested 5.0 mM (FIG. 8)): not inhibitory at the highest concentration tested; IC50 [2]: > 5 mM |
| OC[C@H]1NC[C@H](O)[C@@H](O)[C@@H]1O [DNJ, deoxynojirimycin] | no effect | inhibition of glucose transfer ([2]; highest concentration tested 6.1 mM (FIG. 8)): not inhibitory at the highest concentration tested; IC50 [2]: > 5 mM |
| CCN1C[C@H](O)[C@@H](O)[C@@H](O)[C@H]1CO [N-ethyl DGJ] | no effect; also recorded: inactive | – |
| CCCCCCN1C[C@H](O)[C@@H](O)[C@@H](O)[C@H]1CO [N-hexyl DGJ, N-hexyl deoxygalactonojirimycin] | completely prevented glycolipid biosynthesis; also recorded: completely inhibited glycolipid biosynthesis | prevention of glycolipid storage in in vitro Gaucher's disease model (in words) [3]: offset glucoceramide accumulation |
| CCCCCCN1C[C@H](O)[C@@H](O)[C@H](O)[C@H]1CO [N-hexyl DNJ] | completely inhibited glycolipid biosynthesis | – |
| CN1C[C@H](O)[C@@H](O)[C@@H](O)[C@H]1CO [N-methyl DGJ] | no effect; also recorded: inactive | – |
| CN1C[C@H](O)[C@@H](O)[C@H](O)[C@H]1CO [N-methyl DNJ] | no effect | – |
| CCCN1C[C@H](O)[C@@H](O)[C@@H](O)[C@H]1CO [N-propyl DGJ, N-propyl deoxygalactonojirimycin] | partial inhibitory activity; also recorded: partially active | – |
| CCCN1C[C@H](O)[C@@H](O)[C@H](O)[C@H]1CO [N-propyl DNJ] | partial inhibitory activity | – |
| CCCCN1C[C@@H](O)[C@H](O)[C@H](O)[C@@H]1C [NB-DFJ] | – | inhibition of glycolipid biosynthesis [1]: without effect |
| CCCCN1C[C@@H](O)[C@@H](O)[C@H](O)[C@H]1CO [NB-DMJ, N-butyl deoxymannojirimycin] | – | inhibition of glycolipid biosynthesis [1]: without effect |
| CCCCN1C[C@H](NC(C)=O)[C@@H](O)[C@H](O)[C@H]1CO [NB-NAG, N-butyl 2-acetamido-1,2,5-trideoxy-1,5-imino-D-glucitol] | – | inhibition of glycolipid biosynthesis [1]: without effect |
